Measurements from publication PMC7698151, “Evidence for Pentapeptide-Dependent and Independent CheB Methylesterases” (International Journal of Molecular Sciences, 2020).
Values joined by “and” are separate entries in the source; they are usually repeats but may differ in a detail not shown here. Identical values can stand only once. Where no end group is shown, it is not given here.

How the values were obtained:
[1] = biological target: T1, CheB2 D55E mutant protein (Pseudomonas aeruginosa, UniProt Q9I6V9, D55E); test: Microcalorimetric titration (ITC) of the CheB2 D55E mutant with the GWEEF peptide; type: binding, Pseudomonas aeruginosa PAO1
T1 construct: His-tag (pET28b) (N); made in house; host or cells: E. coli BL21 (DE3)
T1 sequence (Q9I6V9 1-349 D55E): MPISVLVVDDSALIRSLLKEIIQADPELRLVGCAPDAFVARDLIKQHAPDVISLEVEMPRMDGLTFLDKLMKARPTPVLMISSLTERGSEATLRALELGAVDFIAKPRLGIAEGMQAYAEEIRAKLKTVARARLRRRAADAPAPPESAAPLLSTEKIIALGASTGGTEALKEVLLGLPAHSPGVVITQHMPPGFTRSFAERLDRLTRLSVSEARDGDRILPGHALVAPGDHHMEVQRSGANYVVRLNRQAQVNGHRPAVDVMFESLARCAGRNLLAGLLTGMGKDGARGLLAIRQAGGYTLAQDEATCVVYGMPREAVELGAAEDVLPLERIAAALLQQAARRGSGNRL
Protocol: (§1) All experiments were conducted on a VP microcalorimeter (Microcal, Amherst, MA, USA) at 25 °C. For the analysis of the CheB homologs of P. aeruginosa, 15–40 μM of proteins (dialyzed into 5-mM Tris/HCl, 5-mM Pipes, and 5-mM Mes, pH 7.0) were placed into the sample cell and titrated with 1–7-mM solution of the GWEEF peptide (synthesized by Biomedal S.L., Seville, Spain). […] All ligand solutions were prepared in dialysis buffer immediately before use. The mean enthalpies measured from the injection of the peptide into the buffer were subtracted from the raw titration data prior to data analysis with the “one binding site model” of the MicroCal version of ORIGIN.

[2] = biological target: T2, CheB2 (Pseudomonas aeruginosa, UniProt Q9I6V9); test: Microcalorimetric titration (ITC) of CheB2 with the McpB pentapeptide; parameters: species or system Pseudomonas aeruginosa PAO1; conditions: 25 °C, 15-40 μM protein in 5-mM Tris/HCl, 5-mM Pipes, 5-mM Mes, pH 7.0, titrated with 1-7 mM peptide, one binding site model, read-out: dissociation constant (KD)
T2 construct: His-tag (pET28b) (N); made in house; host or cells: E. coli BL21 (DE3)
Protocol: To verify which CheB homolog interacts with this peptide, the four CheB homologs were overexpressed in E. coli, purified, and submitted to microcalorimetric titrations with the pentapeptide of the McpB receptor, GWEEF.
Microcalorimetric titrations of the four CheB homologs (15 to 40 μM) with 14-μL aliquots (1 to 7 mM) of the GWEEF pentapeptide. […] Data were fitted using the “one binding site model” of the MicroCal version of ORIGIN.
as §1

[3] = tested on: CheR from E. coli; conditions: cited from earlier work
Text: This pentapeptide, NWETF, represents an additional binding site for CheR and CheB [8, 9]. […] St ...

T2 sequence (Q9I6V9 whole entry): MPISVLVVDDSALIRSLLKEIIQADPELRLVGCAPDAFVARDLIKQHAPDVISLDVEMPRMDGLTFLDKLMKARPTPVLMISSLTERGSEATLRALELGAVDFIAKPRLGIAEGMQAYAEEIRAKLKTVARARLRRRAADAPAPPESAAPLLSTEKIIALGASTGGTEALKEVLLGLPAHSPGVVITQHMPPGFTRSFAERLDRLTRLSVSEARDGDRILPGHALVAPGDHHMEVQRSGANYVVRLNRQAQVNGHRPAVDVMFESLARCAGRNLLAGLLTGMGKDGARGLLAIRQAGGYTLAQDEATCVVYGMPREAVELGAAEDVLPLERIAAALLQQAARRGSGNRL

Substance	Kd [1]	Kd [2]	Kd [3]
GWEEF [GWEEF]	56 ± 14 µM	0.093 mM	–
NWETF [C-terminal pentapeptide of E. coli Tar/Tsr and of eight P. atrosepticum SCRI1043 chemoreceptors]	–	–	2 µM and ~2 µM
